In publication PMC9537541, “Synthesis and anticancer activity of new benzensulfonamides incorporating s-triazines as cyclic linkers for inhibition of carbonic anhydrase IX” (Scientific Reports, 2022):
“Also recorded” adds a separate entry of the source.

Legend:
[1] = target: T1, hCA II (Homo sapiens, UniProt P00918); assay: stopped-flow CO2 hydrase assay, hCA II; format: biochemical; details: stopped flow technique, mean from 3 different assays
T1 construct: made in house

[2] = test system: Leukemia (CCRF-CEM); assay: NCI single dose SRB screen, CCRF-CEM; format: cell-based; details: normoxic condition (5% CO2, 95% air at 37 °C), NCI protocol
Procedure: (§1) Target compounds in series (A) and (B), were submitted to the National Cancer Institute (NCI) Developmental Therapeutic Program (www.dtp.nci.nih.gov), where they have been assessed, in vitro for their anticancer activity. Two series (A) and (B), were screened in a single dose (10 µM) versus full panel composed of 60 cancer cell lines, in accordance with protocol of drug evaluation branch, NCI, Bethesda. Sulforhodamine B (SRB) colorimetric assay was used to determine cell growth and viability,[40].
(§2) Protocol of Drug Evaluation Branch, NCI, Bethesda, was adopted in the antitumor assay. Assessment of cell growth and viability was carried out utilizing SRB assay and 48 h drug exposure protocol as previously reported,[40].

[3] = target: T2, hCA XII (Homo sapiens, UniProt O43570); assay: stopped-flow CO2 hydrase assay, hCA XII; format: biochemical; details: for Ki: stopped flow technique, mean from 3 different assays
T2 construct: made in house

[4] = test system: leukemia (CCRF-CM); assay: anti-proliferative activity under hypoxic condition (MTT), CCRF-CM; format: cell-based; details: for GI% Hypoxia CCRF-CM: hypoxic condition (1% O2, 5% CO2, and 94%N2 at 37 °C); for IC50: hypoxic conditions (1%O2, 5% CO2 and 94% N2), mean ± S.D. of three experiments
Procedure: (§3) All cells were incubated in hypoxic atmosphere (1% O2, 5% CO2, and 94%N2) and maintained at 37 °C. All procedures to determine compounds cytotoxicity were accomplished using MTT assay as reported,[59],[60].

[5] = test system: Leukemia (SR); assay: NCI single dose SRB screen, SR; format: cell-based; details: 48 h, 10^−5 M single dose, read-out: GI% Leukemia (SR)
In short: (§4)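 The NCI 60-cell-line panel was screened at a single 10 µM dose with 48 h drug exposure. Cell growth and viability were measured by sulforhodamine B colorimetric assay, per the NCI Drug Evaluation Branch protocol.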

[6] = test system: Breast cancer (MDA-MB-468); assay: anti-proliferative activity under hypoxic condition (MTT), MDA-MB-468; format: cell-based; details: for IC50: Homo sapiens, MDA-MB-468, hypoxic conditions (1%O2, 5% CO2 and 94% N2), mean ± S.D. of three experiments; for GI% Hypoxia MDA-MB-468: hypoxic condition (1% O2, 5% CO2, and 94%N2 at 37 °C)
Procedure: as §3

[7] = test system: Renal cancer (UO-31); assay: NCI single dose SRB screen, UO-31; format: cell-based; details: Homo sapiens, UO-31, 48 h, 10^−5 M single dose, read-out: GI% Renal cancer (UO-31)
In short: as §4

[8] = test system: CNS cancer (SNB-75); assay: NCI single dose SRB screen, SNB-75; format: cell-based; details: Homo sapiens, SNB-75, 48 h, 10^−5 M single dose, read-out: GI% CNS cancer (SNB-75)
In short: as §4

[9] = target: T3, hCA I (Homo sapiens, UniProt P00915); assay: stopped-flow CO2 hydrase assay, hCA I; format: biochemical; details: stopped flow technique, mean from 3 different assays
T3 construct: made in house

[10] = test system: Breast cancer (MDA-MB-468); assay: NCI single dose SRB screen, MDA-MB-468; format: cell-based; details: for inhibition at 10 µM: Homo sapiens, MDA-MB-468, 48 h, 10^−5 M single dose, 48 h, SRB, read-out: GI% Breast cancer (MDA-MB-468); for GI% Normoxia MDA-MB-468: normoxic condition (5% CO2, 95% air at 37 °C), NCI protocol
In short: as §4

[11] = test system: non-small cell lung cancer (HOP-92); assay: NCI single dose SRB screen, HOP-92; format: cell-based; details: 10 µM single dose
Procedure: as §1, §2

[12] = test system: caspase 9; assay: Western blot of caspase 9 in MDA-MB-468 cells; format: cell-based
From the text: (§5) Caspases, cysteine-containing aspartic acid-specific proteases, afford essential factors in cell networks that control and regulate death of the cell. Caspase-3 is a vital executioner protease which is triggered by cascade of initiator caspases such as caspase-9 [49]. This study was further extended to explore the apoptosis mechanism of compound 12d upon breast cancer, MDA-MB-468, cells by measuring the expression of apoptosis biomarkers (cleaved caspase 3 and caspase 9) via Gel electrophoresis and immune-blot analysis of proteins (Western Blot) using β-actin to normalize the loading. […] Accordingly, compound 12d have the ability to induce apoptosis in MDA-MB-468 cancer cells probably by pathways involving both caspase3 and caspase9.
(§6) MDA-MB-468 cells, were harvested on dishes of cell culture and treated for 24 h with compound 12d. An equal amount of protein transferred to PVDF membranes after separated by SDS-PAGE (5–15%). Skim milk with concentration 5% was used to block the blotted membranes for 1 h before being incubated with the desired primary antibodies at 37 °C for 1 h. Colorimetric technique was used to visualize immune reactive bands using Geldoc-it, UVP, England. To quantify equal loading, membrane was reseeded with β-actin antibody.
(§7) Eelectrophoresed proteins on SDS-PAGE were transferred to a Hybond™ nylon membrane (GE Healthcare) via TE62 Standard transfer tank with Cooling Chamber (Hoefer Inc. and incubate for 1 hour at room temperature in Blocking Solution. Additionally, β-actin (abcam, ab8227) was applied as housekeeping protein.
(§8) - Membrane was incubated the overnight at 4°C in antibody solution containing caspase isoform (Cell Signalling) separately for each antibody.
(§9) - Colorimetric technique was used to visualize immune reactive bands using Geldoc-it, UVP, England. Each experiment was run in triplicate.

[13] = test system: MDA-MB-468 breast cancer cells; assay: Annexin V-FITC/propidium iodide apoptosis assay; format: cell-based
Procedure: Apoptosis of tumor cells is the principal therapeutic objective of antiproliferative agents. The apoptotic induction potential of 12d in MDA-MB-468 cells were assessed using the Annexin V/propidium iodide double staining assay,[48].
Cells apoptosis further analyzed by measuring phosphatidylserine externalization using V-FITC/PI apoptosis detection kit (BD Biosciences, USA) according manufacturer's instructions, as reported,[62].

[14] = test system: breast cancer (T-47D); assay: NCI single dose SRB screen, T-47D; format: cell-based; details: 10 µM single dose
Procedure: as §1, §2

[15] = test system: caspase 3; assay: Western blot of caspase 3 in MDA-MB-468 cells; format: cell-based
From the text: as §5, §6, §7, §8, §9

[16] = test system: leukemia (RPMI-8226); assay: NCI single dose SRB screen, RPMI-8226; format: cell-based; details: 10 µM single dose
Procedure: as §1, §2

[17] = test system: MDA-MB-468 breast cancer cells; assay: cell cycle analysis by flow cytometry; format: cell-based; details: 24 h at IC50 concentration (3.99 µM)
From the text: Cell cycle is composed of four distinct phases: G1, S, G2, and M[45]. Flow cytometry analysis of DNA ploidy in MDA-MB-468 breast cancer cells was used to evaluate the influence of compound 12d on normal cell cycle progression. […] Apoptosis and DNA fragmentation are possible mechanisms for 12d-induced cancer cell death based on the observed high increase in a pre-G1 cell population by 20 fold compared to the control.
The treated cells were centrifuged and maintained in ice-cold ethanol (70%) before being washed again with PBS and then re-suspended in RNase ([…]) followed by staining with 40 µg/mL PI, and analyzed by flow cytometry technique using a FACS Calibur (Becton Dickinson,BD, USA). Cell cycle distribution were calculated via CellQuest software 5.1 (Becton Dickinson),[63].

[18] = test system: normal human embryonic kidney cells (HEK-293); assay: normal cell line cytotoxicity (MTT), HEK-293; format: cell-based
Procedure: All data was collected in triplicate, and IC50 values were calculated as the average of three separate trials.

[19] = target: T4, hCA IX (Homo sapiens, UniProt Q16790); assay: stopped-flow CO2 hydrase assay, hCA IX; format: biochemical
T4 construct: made in house

[20] = Western blot, β-actin normalised

T2 sequence (O43570 25-354): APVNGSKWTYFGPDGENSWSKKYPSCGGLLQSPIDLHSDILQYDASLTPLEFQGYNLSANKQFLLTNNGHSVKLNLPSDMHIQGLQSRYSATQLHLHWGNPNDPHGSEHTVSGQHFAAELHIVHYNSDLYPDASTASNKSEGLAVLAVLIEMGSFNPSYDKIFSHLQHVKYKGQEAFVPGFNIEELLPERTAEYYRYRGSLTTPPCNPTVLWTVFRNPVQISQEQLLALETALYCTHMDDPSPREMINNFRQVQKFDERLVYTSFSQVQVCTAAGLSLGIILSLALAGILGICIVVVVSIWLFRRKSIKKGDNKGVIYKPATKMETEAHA
T3 sequence (P00915 whole entry): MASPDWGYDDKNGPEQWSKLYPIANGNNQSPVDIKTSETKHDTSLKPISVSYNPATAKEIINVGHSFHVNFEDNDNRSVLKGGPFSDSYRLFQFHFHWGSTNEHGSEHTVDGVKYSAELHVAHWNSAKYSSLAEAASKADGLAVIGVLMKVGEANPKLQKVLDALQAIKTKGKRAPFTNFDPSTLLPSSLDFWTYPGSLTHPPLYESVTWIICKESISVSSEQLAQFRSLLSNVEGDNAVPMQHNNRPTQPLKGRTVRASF

`N#C/C(=C\c1cccc(F)c1)c1nc(N)nc(Nc2ccc(S(N)(=O)=O)cc2)n1` [Compound 12i, 4-({4-Amino-6-[(1E)-1-cyano-2-(3-fluorophenyl)eth-1-en-1-yl]-1,3,5-triazin-2-yl}amino)benzene-1-sulfonamide] was tested, and the Ki [1] was 253 nM, the “GI% Normoxia CCRF-CM” value [2] was 0.76% and the Ki [3] was 182 nM. The “GI% Hypoxia CCRF-CM” value [4] was 50.14%, the IC50 [4] was 9830 ± 520 nM and the inhibition at 10 µM [5] was no more than 10%. The IC50 [6] was 1480 ± 80 nM, the “GI% Hypoxia MDA-MB-468” value [6] was 64.75% and the inhibition at 10 µM [7] was 20%. It also gave an inhibition at 10 µM [8] of no more than 10%, a Ki [9] of 480 nM and an inhibition at 10 µM [10] of 17%. For the same compound, the “GI% Normoxia MDA-MB-468” value [10] was 16.58% and the “GI% non-small cell lung cancer (HOP-92)” value [11] was 16%.

In the case of `CN(C)c1ccc(/C=C(\C#N)c2nc(N)nc(Nc3ccc(S(N)(=O)=O)cc3)n2)cc1` [Compound 12d, 4-({4-Amino-6-[(1E)-1-cyano-2-[4-(dimethylamino)phenyl]eth-1-en-1-yl]-1,3,5-triazin-2-yl}amino)benzene-1-sulfonamide], the “cleaved caspase 9 expression relative to the control” value [12, 20] is reported as “increasing the level; also recorded: significant activation”, the “Expression level of procaspase 9, Lane %, Mean ± SD” value ([12]; treated 24 h, three replicates, control 40.53 ± 0.008) is reported as 25.30 ± 0.004% and the “Expression level of cleaved caspase 9, Lane %, Mean ± SD, first line” value ([12]; treated, first of two band lines (35/37 KDa), control 6.75 ± 0.008) is reported as 6.04 ± 0.012%. For the same compound, the “Expression level of cleaved caspase 9, Lane %, Mean ± SD, second line” value ([12]; treated, second of two band lines (35/37 KDa), control 14.32 ± 0.004) was 21.59 ± 0.004%, the Ki [1] was 364 nM and the “GI% Normoxia CCRF-CM” value [2] was 52.61%. The “total increase in apoptotic cells compared to the control” value ([13]; annexin V-FITC positive cells) was “about 20 fold”, the “apoptotic cells in late apoptosis phase (UR)” value ([13]; annexin V-FITC/PI, control 0.11%) was 17.66% and the “apoptotic cells in early stage (LR)” value ([13]; annexin V-FITC/PI, control 0.39%) was 2.76%. For the same compound, the “Selectivity index (SI) I/XII” value ([3]; hCA XII over off-target hCA I) was 3, the “Selectivity index (SI) II/XII” value ([3]; hCA XII over off-target hCA II) was 2 and the Ki [3] was 188 nM. The “GI% Hypoxia CCRF-CM” value [4] was 55.82%, the IC50 [4] was 4510 ± 240 nM and the “GI% breast cancer (T-47D)” value [14] was no less than 50%. For the same compound, the “cleaved caspase 3 expression relative to the control” value [15, 20] was “increasing the level; also recorded: significant activation”, the “Expression level of procaspase 3, Lane %, Mean ± SD” value ([15]; treated 24 h, three replicates, control 42.52 ± 0.013) was 27.81 ± 0.008% and the “Expression level of cleaved caspase 3, Lane %, Mean ± SD, first line” value ([15]; treated, first of two band lines (17/19 KDa), control 4.91 ± 0.017) was 6.88 ± 0.008%. The “Expression level of cleaved caspase 3, Lane %, Mean ± SD, second line” value ([15]; treated, second of two band lines (17/19 KDa), control 13.59 ± 0.0) was 22.42 ± 0.0%, the inhibition at 10 µM [5] was no less than 50% and the IC50 [6] was 3990 ± 210 nM. The “GI% Hypoxia MDA-MB-468” value [6] was 59.38%, the “GI% leukemia (RPMI-8226)” value [16] was no less than 50% and the “cell cycle arrest phases” value [17] was “G0-G1 and S phases”. The “increase in pre-G1 cell population compared to the control” value [17] was 20 fold, the Ki [9] was 577 nM and the inhibition at 10 µM [10] was no less than 50%. For the same compound, the “GI% Normoxia MDA-MB-468” value [10] was 61.39%, the IC50 ([18]; Homo sapiens, HEK293, normal cells, mean ± SD of three independent experiments) was 68100 ± 3720 nM and the “safety index relative to staurosporine” value ([18]; cancer versus normal cells) was “about twofold”. For the same compound, the “Selectivity index (SI) I/IX” value ([19]; hCA IX over off-target hCA I) was 3, the “Selectivity index (SI) II/IX” value ([19]; hCA IX over off-target hCA II) was 2 and the Ki ([19]; stopped flow technique, mean from 3 different assays) was 190 nM.
